Assay results as given in article PMC11189516, “Structure-guided conversion from an anaplastic lymphoma kinase inhibitor into Plasmodium lysyl-tRNA synthetase selective inhibitors” (Communications Biology, 2024).
Values joined by “and” are separate entries in the source; they are usually repeats but may differ in a detail not shown here. Equal entries are not always repeated. One block for each molecule: values may come before it.

How the values were obtained:
PfLysRS = molecular target: T1, PfLysRS (Plasmodium falciparum, UniProt Q8IDJ8); assay: Thermal shift assay; format: binding; settings: for ΔTm of PfLysRS / ΔTm at 200 µM: in the presence of L-lysine
T1 construct: PfLysRS (77–583) was constructed in the vector pET20b, with a C-terminal 6×His tag; 6xHis (C); made in house; host or cells: E. coli BL21 (DE3)
Method: PfLysRS protein was prepared at 10 μM concentration in a buffer containing 20 mM Tris pH 8.0, 200 mM NaCl, 500 μM L-lysine, and 200 μM Compound. Aliquots (18 µL) were added to a 96-well PCR plate and incubated at ambient temperature for 10 min. SYPRO Orange dye (Sigma) was diluted in the assay buffer containing 20 mM Tris pH 8.0 and 200 mM NaCl to a 40× concentration, and 2 µL of the 40× dye solution was added to the PCR plate to bring the final assay volume to 20 µL. After complete mixing, the final solutions were heated from 25 to 90 °C at a rate of 0.015 °C per sec, and fluorescence signals were monitored by QuantStudio 3 (Applied Biosystems by Thermo Fisher Scientific).

HsLysRS = molecular target: T2, HsLysRS (Homo sapiens, UniProt Q15046); assay: ATP hydrolysis assay (Kinase-Glo) on HsLysRS; format: biochemical; settings: read-out: IC50 against HsLysRS
T2 construct: HsLysRS (70–581) was constructed in the vector pET20b with a C-terminal 6×His tag; 6xHis (C); made in house; host or cells: E. coli (pET20b; 'purified similarly' to PfLysRS, which was expressed in BL21 (DE3))
Method: The ATP hydrolysis assays were based on Kinase-Glo luminescent Kit (Promega). The experiment was carried out in Corning 384-well white flat bottom microplates. The buffer in the reaction contains 25 mM Hepes pH 7.4, 140 mM NaCl, 40 mM MgCl2, 30 mM KCl, 1 mM TCEP, 0.1 mg·mL^−1 BSA, and 0.004% Tween-20. The compounds were diluted to different concentrations with a 5-fold gradient.
For LysRS assays, DMSO was added into negative control wells and L-lysine was removed in positive control wells. 100 nM LysRS in 2.5 μL Hepes buffer was mixed with compounds and incubated for 10 min. Then 5 μL substrate mixture (2 μM ATP, 10 μM L-lysine and 31 nM pyrophosphatase) was added to start the reaction at 37 °C and incubated for 6 h.
When the reaction reaches the planned time, 10 μL diluted Kinase-Glo reagent (1/50 diluted with a buffer containing 50 mM Tris pH 7.5 and 5% glycerol) was added and incubated for 15 min. Luminescence was measured on the Magellan plate reader (Tecan) and nonlinear regression was performed with Prism (GraphPad).

[1] = system: erythrocytic-stage P. falciparum 3D7 parasites; assay: In vitro Plasmodium growth assay; format: cell-based, Plasmodium falciparum
Method: Parasites were cultured in human O+ erythrocytes according to standard procedures. To prepare the >80% ring stage parasites, asynchronous cultures of parasites were pretreated with 5% sorbitol, and P. falciparum strain 3D7 at the mid-ring stage (6–10 h post-invasion) was used to test antimalarial effects in 96-well plates. Parasites were incubated in a 96-well plate with compound containing 1% parasitemia and, 2% hematocrit for a total volume of 200 μL. […] A relevant DMSO concentration was used as a negative control, and cultured erythrocytes without Plasmodium served as a positive control. The parasites were allowed to grow for 72 h at 37 °C with 5% CO2, 5% O2, and 90% N2. After 72 h, 100 μL of lysis buffer (0.12 mg·mL^−1 Saponin, 0.12% Triton X-100, 30 mM Tris-HCl pH 8.0, and 7.5 mM EDTA) with 5× SYBR Green I (Invitrogen; supplied in 10000× concentration) was added to each well of the plate. The plates were then incubated for 2 h in the dark prior to reading the fluorescence signal at 485 nm excitation and 535 nm emission. The percentage of inhibition was calculated by (NC-fluorescence) × 100/(NC-PC).

T1 sequence (Q8IDJ8 entry or part of it): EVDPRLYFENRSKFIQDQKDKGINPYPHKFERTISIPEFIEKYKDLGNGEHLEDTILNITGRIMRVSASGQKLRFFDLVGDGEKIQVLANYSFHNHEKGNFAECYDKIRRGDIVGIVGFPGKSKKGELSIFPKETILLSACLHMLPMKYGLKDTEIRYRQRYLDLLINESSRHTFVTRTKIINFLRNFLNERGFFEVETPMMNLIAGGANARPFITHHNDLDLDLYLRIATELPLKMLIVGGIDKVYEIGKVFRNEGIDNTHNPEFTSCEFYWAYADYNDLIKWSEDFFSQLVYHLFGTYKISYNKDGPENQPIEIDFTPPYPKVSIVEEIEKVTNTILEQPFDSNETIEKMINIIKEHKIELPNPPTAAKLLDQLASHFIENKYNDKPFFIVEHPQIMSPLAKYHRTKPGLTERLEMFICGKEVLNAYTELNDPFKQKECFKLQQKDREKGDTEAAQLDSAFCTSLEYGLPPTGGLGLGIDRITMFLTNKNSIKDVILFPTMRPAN
T2 sequence (Q15046 70-581): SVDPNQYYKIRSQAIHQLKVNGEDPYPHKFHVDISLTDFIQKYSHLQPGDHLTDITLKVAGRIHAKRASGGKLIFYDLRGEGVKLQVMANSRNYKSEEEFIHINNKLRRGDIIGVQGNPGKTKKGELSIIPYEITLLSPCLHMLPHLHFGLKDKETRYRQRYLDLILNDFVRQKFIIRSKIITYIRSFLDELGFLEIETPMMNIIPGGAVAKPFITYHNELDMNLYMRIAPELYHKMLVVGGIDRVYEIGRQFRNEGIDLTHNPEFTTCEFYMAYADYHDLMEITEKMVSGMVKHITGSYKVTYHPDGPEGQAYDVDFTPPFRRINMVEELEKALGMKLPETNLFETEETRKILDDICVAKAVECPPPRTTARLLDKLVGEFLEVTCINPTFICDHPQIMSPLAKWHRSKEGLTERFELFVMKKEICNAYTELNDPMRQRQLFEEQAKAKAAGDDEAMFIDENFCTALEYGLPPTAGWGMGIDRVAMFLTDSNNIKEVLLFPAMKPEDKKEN

Compound: COc1ccc(F)cc1Nc1ncnc(Nc2ccccc2S(=O)(=O)C(C)C)n1 [Compound 41]
ΔTm of PfLysRS (PfLysRS): 1.9 °C

Compound: COc1ccc(C(F)(F)F)cc1Nc1ncnc(Nc2ccccc2S(=O)(=O)C(C)C)n1 [Compound 33]
ΔTm of PfLysRS (PfLysRS): -0.1 °C

Compound: COc1ccc(OC(F)(F)F)cc1Nc1ncnc(Nc2ccccc2S(=O)(=O)C(C)C)n1 [Compound 42]
ΔTm of PfLysRS (PfLysRS): 1.5 °C

Compound: COc1ccc(Nc2ncnc(Nc3ccccc3S(=O)(=O)C(C)C)n2)c(OC)c1 [Compound 35]
ΔTm of PfLysRS (PfLysRS): 6.4 °C

Compound: COc1cc(N2CCC(N3CCN(C)CC3)CC2)ccc1Nc1ncnc(Nc2ccccc2C2C=CCCC2)n1 (stereo not shown) [Compound 31]
ΔTm of PfLysRS (PfLysRS): 2.0 °C

Further lines, with some results ahead:

ΔTm of PfLysRS (PfLysRS): 0.1 °C
Compound: COc1ccc(OC)c(Nc2cccc(Nc3ccccc3S(=O)(=O)C(C)C)n2)c1 [Compound 36b]

ΔTm of PfLysRS (PfLysRS): −0.2 °C
Compound: COc1ccc(OC)c(Nc2cccc(Nc3ccccc3S(=O)(=O)C(C)C)c2)c1 [Compound 36d]

IC50 (HsLysRS): 44 µM
ΔTm at 200 µM (PfLysRS): 10.7 °C
Compound: COc1cnc(OC)c(Nc2ncnc(Nc3ccccc3S(=O)(=O)C(C)C)n2)c1 [Compound 36a]
% Inhibition ([1]; P. falciparum 3D7, Log(Concentration)/nM 2.893, single repeats): 14.91%
% Inhibition ([1]; P. falciparum 3D7, Log(Concentration)/nM 3.193, single repeats): 32.52% and 24.14%
% Inhibition ([1]; P. falciparum 3D7, Log(Concentration)/nM 3.496, single repeats): 30.61% and 34.32%
% Inhibition ([1]; P. falciparum 3D7, Log(Concentration)/nM 3.796, single repeats): 39.42% and 74.11%
% Inhibition ([1]; P. falciparum 3D7, Log(Concentration)/nM 4.097, single repeats): 57.98% and 94.48%
% Inhibition ([1]; P. falciparum 3D7, Log(Concentration)/nM 4.398, single repeats): 81.01% and 104.5%
% Inhibition ([1]; P. falciparum 3D7, Log(Concentration)/nM 4.699, single repeats): 93% and 107%
% Inhibition ([1]; P. falciparum 3D7, Log(Concentration)/nM 5.000, single repeats): 88.65% and 105.6%
HillSlope (best-fit value) ([1]; Plasmodium falciparum 3D7): 1.181
LogIC50 (best-fit value) ([1]; Plasmodium falciparum 3D7, log of nM): 3.762
IC50 ([1]; Plasmodium falciparum 3D7, source data, read-out: IC50 (best-fit value)): 5.78 µM
EC50 ([1]; Plasmodium falciparum, 3D7, 72 h): 5.78 ± 1.73 µM

ΔTm of PfLysRS (PfLysRS): 3.1 °C
Compound: COc1ccc(OC)c(Nc2cc(Nc3ccccc3S(=O)(=O)C(C)C)ncn2)c1 [Compound 36e]

Tm of PfLysRS, Average (PfLysRS; +Lysine): 42.100 °C
ΔTm at 200 µM (PfLysRS): 2 °C
Compound: COc1cccnc1Nc1ncnc(Nc2ccccc2S(=O)(=O)C(C)C)n1 [Compound 38b]
Tm of PfLysRS, single repeat (PfLysRS; +Lysine): 42.223 °C and 42.193 °C and 42.039 °C and 41.946 °C
